Consider two molecules from paper PMC9850727, “Benzoxazolone-5-Urea Derivatives as Human Soluble Epoxide Hydrolase (sEH) Inhibitors” (ACS Omega, 2023).

As usually defined, the IC50 is the concentration that inhibits the measured activity by half. What is called melting point is the temperature, or range, at which the solid turns liquid.

In one data set the test system is monocytes. The data set can be described thus: Cytotoxic activity in monocytes (MTT, metabolic activity after 24 h). Format: cell-based, human. The following applies: metabolic activity (MTT) after 24 h, data not shown in main text (Figure S52). The text has this: The benzyl group appears as a frequently recurring chemical fragment in the architecture of amide or urea-type sEH inhibitors.[4] Therefore, we extracted this common fragment and combined it with benzoxazolone using a urea backbone with the aim of improving a sEH inhibitory potency in the newly designed analogues (Table 2). […] This implies that voluminous substituents at this position are better accommodated at the binding site. […] Taken together, 2- or appropriate 2,4-disubstitution patterns govern potent sEH inhibition in this series. Overall, the preliminary SAR in this work indicated a new favorable structural feature at the right- and left-hand side of the compounds to achieve potent sEH inhibition. Another aspect of characterizing the compounds is determining their cytotoxic activity; for this purpose, we used monocytes due to their high expression of sEH. By applying 33 and 38 to monocytes and measuring the metabolic activity after 24 h, we could exclude cytotoxic activity up to concentrations of 1 μM (data not shown).
The cytotoxic activities of compounds were assessed as previously described.[29] […] The absorbance was determined at 570 nm using a Multiskan Spectrum microplate reader (Thermo Fisher Scientific, Schwerte, Germany). […]

The target of the next data set is T1, human recombinant sEH (Homo sapiens, UniProt P34913).
T1 construct: made in house; host or cells: Sf9 cells infected with recombinant baculovirus (from Dr. Bruce Hammock, UC Davis)
T1 sequence (P34913 1-555): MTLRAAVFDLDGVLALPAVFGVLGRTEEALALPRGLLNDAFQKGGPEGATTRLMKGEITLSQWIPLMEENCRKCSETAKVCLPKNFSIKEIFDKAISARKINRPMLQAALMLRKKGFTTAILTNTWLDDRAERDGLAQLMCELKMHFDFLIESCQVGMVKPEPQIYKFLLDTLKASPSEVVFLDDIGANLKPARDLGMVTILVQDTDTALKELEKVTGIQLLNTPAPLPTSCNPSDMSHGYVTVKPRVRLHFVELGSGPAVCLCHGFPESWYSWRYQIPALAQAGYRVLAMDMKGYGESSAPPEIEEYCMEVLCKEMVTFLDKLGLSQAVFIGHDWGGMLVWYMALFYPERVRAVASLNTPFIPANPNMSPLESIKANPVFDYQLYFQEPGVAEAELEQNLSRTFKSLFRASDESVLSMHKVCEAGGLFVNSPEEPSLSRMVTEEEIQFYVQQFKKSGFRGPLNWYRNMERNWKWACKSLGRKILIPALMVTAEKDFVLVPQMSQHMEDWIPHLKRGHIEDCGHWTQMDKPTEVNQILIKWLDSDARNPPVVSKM
Put plainly: Cell-free sEH activity assay (fluorescence-based, PHOME substrate). It counts as biochemical. To be noted: mean ± SEM, n = 3, benzoxazolone-ureas (Table 2); for sEH activity % of control at 1 μM / sEH activity % of control at 10 μM: residual activity; for IC50: cell-free assay. From the text:
Inspired by the reported crystallographic screening studies,[12],[13],[15] a series of aryl amide (12, 15–21) or urea (31–39) derivatives with a benzoxazolone head group were synthesized and assessed for inhibition of human recombinant sEH in a cell-free activity assay[27] (Tables 1 and 2). […] Consequently, compounds in which the amide group is attached to the benzoxazolone ring through NH could outperform their direct reversed analogues by more favorable interactions in the central pocket of sEH. In addition, simple methylation of the benzoxazolone NH in 17–18 engendered noticeable differences in sEH inhibition relative to the unmethylated counterparts 15–16, implying that a free NH with H-bond donor property at this location is also important for the observed potency. Subsequently, the positioning of the amide group at the 5-position of the benzoxazolone ring also retained the inhibitory activity.
Human recombinant sEH was expressed and purified as published before.[31] Briefly, Sf9 cells were infected with a recombinant baculovirus (obtained from Dr. Bruce Hammock, University of California, Davis, CA). Following 72 h of transfection, the cells were centrifuged and then sonicated (3 × 10 s at 4 °C) in lysis buffer comprising glycerol (10%), NaHPO4 (50 mM, pH 8), leupeptin (10 μg/mL), NaCl (300 mM), phenylmethanesulfonyl fluoride (1 mM), EDTA (1 mM), and soybean trypsin inhibitor (60 μg/mL). After centrifugation at 100,000g (60 min, 4 °C), the obtained supernatants were subjected to a benzylthio-sepharose-affinity chromatography and eluted with 4-fluorochalcone oxide in PBS containing 1 mM DTT and 1 mM EDTA for purification of sEH. The enzyme was dialyzed and concentrated (Millipore Amicon-Ultra-15 centrifugal filter), and the solution was further assayed for total protein content by a protein detection kit (Bio-Rad Laboratories, Munich, Germany). The epoxide hydrolase activity was measured using a fluorescence-based assay, as reported before.[27] In brief, sEH was diluted in Tris buffer (25 mM, pH 7) containing BSA (0.1 mg/mL) to a suitable enzyme concentration and pretreated with test compounds or 0.1% DMSO as vehicle for 10 min at room temperature. To start the reaction, 50 μM of the PHOME substrate (3-phenyl-cyano(6-methoxy-2-naphthalenyl)methyl ester-2-oxiraneacetic acid), a nonfluorescent compound that is enzymatically converted by sEH into fluorescent 6-methoxy-naphtaldehyde, was added at RT. The reaction was stopped by addition of ZnSO4 (200 mM) after 60 min, and fluorescence was measured (λem 465 nm, λex 330 nm) by employing a NOVOstar microplate reader (BMG LABTECH GmbH, Ortenberg, Germany). If required, the potential fluorescence of test compounds was subtracted from the readout.

Each structure is given as a SMILES string.

Turning to `O=C(NCc1ccccc1OC(F)(F)F)Nc1ccc2oc(=O)[nH]c2c1` [Compound 33, 3-(2-Oxo-2,3-dihydro-1,3-benzoxazol-5-yl)-1-{[2-(trifluoromethoxy)phenyl]methyl}urea], in the data set with monocytes, the “concentration up to which cytotoxic activity is excluded” value was over 1000 nM. Also, on human recombinant sEH, the “sEH activity % of control at 1 μM” value is given as 1.9 ± 3.2 % of control, the “sEH activity % of control at 10 μM” value is 6.8 ± 5.9 % of control and the IC50 was 0.39 ± 0.1 nM.
Regarding `O=C(NCc1ccc(Cl)cc1Cl)Nc1ccc2oc(=O)[nH]c2c1` [Compound 38, 1-[(2,4-Dichlorophenyl)methyl]-3-(2-oxo-2,3-dihydro-1,3-benzoxazol-5-yl)urea], the melting point was 260.9 °C (dec.). In addition, in the data set on monocytes, the “concentration up to which cytotoxic activity is excluded” value is over 1000 nM. For the same molecule, at human recombinant sEH, the “sEH activity % of control at 1 μM” value is 0.0 ± 0.0 % of control, the “sEH activity % of control at 10 μM” value is reported as 0.0 ± 0.0 % of control and the concentration for half-maximal inhibition (IC50) was determined as 0.7 ± 0.08 nM.
